Literature values, collected in patent EP0086468A2, “Oral anti-diabetic preparation” (HOECHST UK LIMITED, priority 1982, dated 1983).

Test system: plasma glucose
Conditions: intravenous bolus injection, published data

## COc1ccc(Cl)cc1C(=O)NCCc1ccc(S(=O)(=O)NC(=O)NC2CCCCC2)cc1 [glibenclamide]
  nadir in plasma glucose levels, time after injection: about 40 minutes
